Legend:
[1] = tested on: Brown Norway rats, STZ-induced diabetic retinopathy; assay: Diabetic retinopathy prevention study in STZ treated rat (IVT); assay type: in vivo
Experimental: The objective of this study was to determine the ability of XG-102 to prevent diabetic retinopathy when administered by intravitreal injections to streptozotocin (STZ)-treated (hyperglycemic) rats.
All animals from Groups 2, 3, 4 received a 55 mg/kg intravenous (IV) dose of STZ on Day −7.
Test items or reference item were administered by intravitreal injection to the left and right eyes of each animal on Days 1, 8 and 15 as indicated in the Experimental Design table. The animals were anesthetized (isoflurane) for the dose administration, which was performed by a board-certified veterinary ophthalmologist. Topical antibiotics (gentamicin ophthalmic solution) were applied to both eyes twice on the day before treatment, following the injection and at least once on the day following the injection. Prior to dosing, mydriatic drops (1% tropicamide and/or 2.5% phenylephrine) were applied to each eye (further applications were performed when considered appropriate by the veterinary ophthalmologist). During dosing, animals were maintained under anesthesia with isoflurane/oxygen gas. The conjunctivae were flushed with 0.9% Sodium Chloride for Injection USP. A 10 μl Hamilton syringe with 32-gauge, ½-inch needle was used for each intravitreal injection (one syringe/group/treatment). The dose volume was 5 μL/eye. Both eyes were examined by slit-lamp biomicroscopy and/or indirect ophthalmoscopy immediately following each treatment to document any abnormalities (especially to the lens, vitreous and retina) caused by the administration procedure. […]
The in-life procedures, observations, and measurements listed below were performed for study animals. […] Food consumption was quantitatively measured weekly starting during the last week of the pretreatment period. […] Intraocular pressure was measured following each ophthalmology examination, once prestudy and on Day 22, using a TonoVet™ rebound tonometer. The pre-treatment tonometry readings were performed at the same times as anticipated for the final measurements to reduce diurnal variability. […]

[2] = Phase II trial, safety and tolerability (adverse events)
Experimental: The criteria for evaluation of safety were:
An AE is therefore any unfavorable and unintended sign, symptom or disease temporally associated with the use of a medicinal product, whether or not considered related to the medicinal product.
Patients were analyzed as treated, i.e. according to the treatment which they received. The safety set was the primary analysis set for the safety analysis.
The present study was a double-blind study. All patients who were randomized and for whom the sub-conjunctival injection was started are included in the safety analysis by dose group. […] If the study treatment eye drops were stopped prematurely (i.e. before day 21), the patients concerned continued follow-up until day 28, in accordance with the study protocol.
Investigators assessed (in a blinded manner) the relationship of each reported AE to any of the study treatments. An event was considered to be related to study treatment if the Investigator ticked either ‘possible’ or ‘probable’ as the reply to this question.

[3] = Phase I pharmacokinetics, single intravenous infusion; conditions: human, in vivo
Experimental: The primary objective of the study was to assess the safety and tolerability of XG-102 following intravenous (iv) infusion of single escalating doses of XG-102 to healthy male volunteers. The secondary objective of the study was to assess the pharmacokinetics of XG-102 following iv infusion of single escalating doses of XG-102 to healthy male volunteers. Doses were administered as a 60 minute iv infusion. For control purposes, placebo iv infusion was administered to control subjects. This was a single-centre, randomized, double blind, placebo controlled, ascending single dose, sequential group study. […] Screening was performed in the 3-week period prior to dosing. Dosing occurred on Day 0 for each subject. […] Data for all subjects were included in the safety analyses; data for all subjects who received XG-102 were included in the pharmacokinetic analyses.

CC(C)C[C@@H](NC(=O)[C@@H](Cc1ccccc1)NC(=O)[C@H]1CCCN1C(=O)[C@@H](CCC(N)=O)NC(=O)[C@H](NC(=O)[C@H]1CCCN1C(=O)[C@@H](CCCNC(=N)N)NC(=O)[C@@H](CO)NC(=O)[C@@H](CCC(N)=O)NC(=O)[C@H](N)CC(=O)O)C(C)C)C(=O)N[C@H](CC(N)=O)C(=O)N[C@H](CC(C)C)C(=O)N[C@@H](C(=O)N[C@@H](C(=O)N1CCC[C@@H]1C(=O)N[C@H](CCCNC(=N)N)C(=O)N[C@H](CCCCN)C(=O)N1CCC[C@@H]1C(=O)N[C@H](CCCNC(=N)N)C(=O)N1CCC[C@@H]1C(=O)N1CCC[C@@H]1C(=O)N[C@H](CCCNC(=N)N)C(=O)N[C@H](CCCNC(=N)N)C(=O)N[C@H](CCCNC(=N)N)C(=O)N[C@H](CCC(N)=O)C(=O)N[C@H](CCCNC(=N)N)C(=O)N[C@H](CCCNC(=N)N)C(=O)N[C@H](CCCCN)C(=O)N[C@H](CCCCN)C(=O)N[C@H](CCCNC(=N)N)C(=O)NCC(=O)O)[C@H](C)O)[C@H](C)O [XG-102]
mortality ([1]; IVT Days 1, 8, 15): no XG-102-related deaths
ERG wave amplitude, overall ([1]; rat, in vivo): tendency for XG-102 to reverse the decrease of the wave amplitude
ERG latencies ([1]; ≤2 μg/eye): comparable and remained within the control and/or pretreatment variation
patients with Intraocular pressure increased ([2]; XG-102 90 μg): 23%
percentage of patients who experienced an AE within 24 hours ([2]; XG-102 90 μg): 34%
overall tolerability ([2]; XG-102 90 μg and 900 μg): well tolerated in patients who underwent complex ocular surgery
Adverse events which led to an interruption of study treatment ([2]; XG-102 90 μg dose group): 11 (14.1%) number of events (%)
patients with Intraocular pressure increased ([2]; XG-102 900 μg): 10%
percentage of patients who experienced an AE within 24 hours ([2]; XG-102 900 μg): 27%
Adverse events which led to an interruption of study treatment ([2]; XG-102 900 μg dose group): 8 (11.6%) number of events (%)
AUCextrap ([3]; 10 ug/kg): 34.1%
AUCextrap ([3]; 40 ug/kg): 6.7%
AUCextrap ([3]; 80 ug/kg): 2.9%

From US10624948B2, “Use of cell-permeable peptide inhibitors of the JNK signal transduction pathway for the treatment of various diseases” (Xigen Inflammation Ltd., priority 2013, dated 2020)
